Here are results for 41 molecules from patent US20110183991A1, “5HT7 RECEPTOR LIGANDS AND COMPOSITIONS COMPRISING THE SAME” (LABORATORIOS DEL DR. ESTEVE, S.A., priority 2008, published 2011).

A word on the IC50: it is the concentration that gives 50% inhibition. A high value points to weaker potency.

Molecules are shown by their SMILES. Read-outs that look alike come from different tables or passages of the source.

The experiment addresses T1, Cloned Human Serotonin Receptor, Subtype 7 (h5HT7), expressed in CHO cells (Homo sapiens, UniProt P34969).
T1 construct: purchased PerkinElmer 6120512; host or cells: CHO cells
The experiment is described as follows: Radioligand binding assay, [125I]LSD, cloned human 5HT7 receptor on Flashplate. To be noted: for inhibition at 1 µM: read-out: %-Inhib. (10^−6 M). The procedure: The protocol assay was essentially the recommended protocol in the Technical Data Sheet by PerkinEmer Life and Analytical Sciences. The Mass membrane protein/well was typically 12 μg and the Receptor/well was about 9-10 fmoles. The Flashplate were let equilibrate at room temperature for one hour before the addition of the components of the assay mixture. The binding buffer was: 50 mM Tris-HCl, pH 7.4, containing 10 mM MgCl2, 0.5 mM EDTA and 0.5% BSA. […] Nonspecific binding was determined with 50 μM of Clozapine. The assay volume was 25 μl. TopSeal-A were applied onto Flashplate microplates and they were incubated at room temperature for 240 minutes in darkness.

The mark [1] stands for this setting: compound at 10^−6 M, radioligand [125I]LSD 0.82 nM.
The mark [2] stands for this setting: 5HT7 binding experiments on the screening selection.

T1 sequence (P34969 whole entry): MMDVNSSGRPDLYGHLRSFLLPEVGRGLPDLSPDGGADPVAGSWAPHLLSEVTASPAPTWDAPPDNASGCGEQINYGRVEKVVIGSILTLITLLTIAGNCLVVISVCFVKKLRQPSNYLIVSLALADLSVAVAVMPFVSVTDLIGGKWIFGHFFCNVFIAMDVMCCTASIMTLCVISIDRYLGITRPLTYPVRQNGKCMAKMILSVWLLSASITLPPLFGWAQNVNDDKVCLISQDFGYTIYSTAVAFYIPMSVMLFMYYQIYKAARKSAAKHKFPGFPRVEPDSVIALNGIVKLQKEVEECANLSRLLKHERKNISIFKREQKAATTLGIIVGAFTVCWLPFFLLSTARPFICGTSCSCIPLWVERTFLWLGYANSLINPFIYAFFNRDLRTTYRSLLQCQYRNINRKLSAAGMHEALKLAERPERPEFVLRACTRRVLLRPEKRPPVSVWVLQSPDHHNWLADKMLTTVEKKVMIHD

For `Cn1cc(CN2CCN(c3ccccc3)CC2)c2ccccc21` [Ex 1, 1-methyl-3-((4-phenylpiperazin-1-yl)methyl)-1H-indole], the inhibition at 1 µM under setting [1] was determined as 22.3%.

On to `Oc1cccc(N2CCN(Cc3ccc(OC(F)(F)F)cc3)CC2)c1` [Ex 2, 3-(4-(4-(trifluoromethoxy)benzyl)piperazin-1-yl)phenol], for which the inhibition at 1 µM under setting [1] was found to be 15.1%.

Take `c1ccc(OCCN2CCN(c3cccc4[nH]ccc34)CC2)cc1` [Ex 3, 4-(4-(2-phenoxyethyl)piperazin-1-yl)-1H-indole]: the inhibition at 1 µM under setting [1] was determined as 53.7%. Besides, the IC50 (radioligand [125I]LSD 0.82 nM) came to 1940 nM. Consider `Fc1cc2c(c(CN3CCN(C4CCc5ccccc5C4)CC3)c1)OCOC2` (stereo not shown) [Ex 4, 1-((6-fluoro-4H-benzo[d][1,3]dioxin-8-yl)methyl)-4-(1,2,3,4-tetrahydronaphthalen-2-yl)piperazine], for which the inhibition at 1 µM under setting [1] was found to be 49%. The IC50 (radioligand [125I]LSD 0.82 nM) stood at 2330 nM.

As for `Cc1cc(NC(=O)CN2CCN(c3cccc4[nH]ccc34)CC2)n(C)n1` [Ex 5, 2-(4-(1H-indol-4-yl)piperazin-1-yl)-N-(1,3-dimethyl-1H-pyrazol-5-yl)acetamide], under setting [1], the inhibition at 1 µM worked out at 14.3%. In the case of `CC[C@H](C)C(=O)N1CCN(Cc2cc(C(C)C)ccc2OC)CC1` [Ex 6, (S)-1-(4-(5-isopropyl-2-methoxybenzyl)piperazin-1-yl)-2-methylbutan-1-one], the inhibition at 1 µM under setting [1] was determined as 15%. For the molecule `N#CCCCN1CCN(c2cccc3[nH]ccc23)CC1` [Ex 7, 4-(4-(1H-indol-4-yl)piperazin-1-yl)butanenitrile], the inhibition at 1 µM is 49.6%. The molecule also had an IC50 (radioligand [125I]LSD 0.82 nM) of 713 nM. `COc1ccc(C(C)C)cc1CN1CCN(C(=O)c2ccsc2)CC1` [Ex 8, (4-(5-isopropyl-2-methoxybenzyl)piperazin-1-yl)(thiophen-3-yl)methanone]: the inhibition at 1 µM under setting [1] was found to be 30.5%.

For `COc1ccc(C(C)C)cc1CN1CCN(C(=O)c2ccc(Br)cc2)CC1` [Ex 9, (4-bromophenyl)(4-(5-isopropyl-2-methoxybenzyl)piperazin-1-yl)methanone], the inhibition at 1 µM under setting [1] came to 68.1%. This molecule yielded an IC50 (radioligand [125I]LSD 0.82 nM) of 1790 nM. As to `Cc1ccc(N2CCN(Cc3ccc(Cl)nc3)CC2)c(C)c1` [Ex 10, 1-((6-chloropyridin-3-yl)methyl)-4-(2,4-dimethylphenyl)piperazine], under setting [1], the inhibition at 1 µM was found to be 16.6%. For the molecule `COc1ccc(C(C)C)cc1CN1CCN(C(=O)Cc2c[nH]c3ccccc23)CC1` [Ex 11, 2-(1H-indol-3-yl)-1-(4-(5-isopropyl-2-methoxybenzyl)piperazin-1-yl)ethanone], the inhibition at 1 µM amounted to 16.3%.

In the case of `COc1ccc(CN2CCN(c3ccc(OC)c(OC)c3)CC2)c(OC)n1` [Ex 12, 1-(3,4-dimethoxyphenyl)-4-((2,6-dimethoxypyridin-3-yl)methyl)piperazine], the inhibition at 1 µM under setting [1] is -0.3%.

In the case of `Cc1ccc(N2CCN(Cc3ccc(OC4CCCCO4)cc3)CC2)c(C)c1` (stereo not shown) [Ex 13, 1-(2,4-dimethylphenyl)-4-(4-(tetrahydro-2H-pyran-2-yloxy)benzyl)piperazine], under setting [1], the inhibition at 1 µM was 12.1%.

For `FC(F)(F)c1cccc(N2CCN(Cc3cccnc3Nc3ccccc3)CC2)c1` [Ex 14, N-phenyl-3-((4-(3-(trifluoromethyl)phenyl)piperazin-1-yl)methyl)pyridin-2-amine], the inhibition at 1 µM under setting [1] was 19.5%. `COc1ccc(CN2CCN(c3ccccc3OC(C)C)CC2)c(OC)n1` [Ex 15, 1-((2,6-dimethoxypyridin-3-yl)methyl)-4-(2-isopropoxyphenyl)piperazine]: the IC50 came out at 82.2 nM and the inhibition at 1 µM amounted to 92.2%. `COc1ccc(CN2CCN(c3ccc(C)cc3C)CC2)c(OC)n1` [Ex 16, 1-((2,6-dimethoxypyridin-3-yl)methyl)-4-(2,4-dimethylphenyl)piperazine]: under setting [1], the inhibition at 1 µM was found to be 8.8%. With `Cn1cc(CN2CCN(c3cccc(C(F)(F)F)c3)CC2)c(=O)n(C)c1=O` [Ex 17, 1,3-dimethyl-5-((4-(3-(trifluoromethyl)phenyl)piperazin-1-yl)methyl)pyrimidine-2,4(1H,3H)-dione], the inhibition at 1 µM under setting [1] came out at 28.5%.

With `COc1ccc(CN2CCN(c3ccc(Cl)cc3)CC2)c(OC)n1` [Ex 18, 1-(4-chlorophenyl)-4-((2,6-dimethoxypyridin-3-yl)methyl)piperazine], the inhibition at 1 µM under setting [1] was found to be 12.3%. In the case of `c1cc(N2CCN(Cc3ccc(OC4CCCCO4)cc3)CC2)c2cc[nH]c2c1` (stereo not shown) [Ex 19, 4-(4-(4-(tetrahydro-2H-pyran-2-yloxy)benzyl)piperazin-1-yl)-1H-indole], the inhibition at 1 µM under setting [1] turned out to be 59.5%. The molecule also displayed an IC50 (radioligand [125I]LSD 0.82 nM) of 1140 nM. In the case of `Cc1cccc(-n2c(=O)c(CN3CCN(c4cccc5[nH]ccc45)CC3)cc3cccnc32)c1` [Ex 20, 3-((4-(1H-indol-4-yl)piperazin-1-yl)methyl)-1-m-tolyl-1,8-naphthyridin-2(1H)-one], the inhibition at 1 µM under setting [1] came to 51.9%. Further, the IC50 (radioligand [125I]LSD 0.82 nM) was 423 nM. In the case of `COc1ccc(CN2CCN(c3cccc(C(F)(F)F)c3)CC2)c(OC)n1` [Ex 21, 1-((2,6-dimethoxypyridin-3-yl)methyl)-4-(3-(trifluoromethyl)phenyl)piperazine], the inhibition at 1 µM under setting [1] turned out to be 9.4%. Take `COc1ccc(CN2CCN(c3cccc4[nH]ccc34)CC2)c(OC)n1` [Ex 22, 4-(4-((2,6-dimethoxypyridin-3-yl)methyl)piperazin-1-yl)-1H-indole]: under setting [1], the inhibition at 1 µM was 114%. The same molecule came in with an IC50 (radioligand [125I]LSD 0.82 nM) of 109 nM.

With `COc1ccc(C(C)C)cc1CN1CCN(c2ccc(Cl)cc2)CC1` [Ex 23, 1-(4-chlorophenyl)-4-(5-isopropyl-2-methoxybenzyl)piperazine], the inhibition at 1 µM under setting [1] was determined as 35.9%. The same measure, in the same setting: the result for `COc1ccc(C(C)C)cc1CN1CCN(c2ccc(C)cc2C)CC1` [Ex 24, 1-(2,4-dimethylphenyl)-4-(5-isopropyl-2-methoxybenzyl)piperazine] reads 41.6%. Consider `Clc1ccc(CN2CCN(c3cccc4[nH]ccc34)CC2)cn1` [Ex 25, 4-(4-((6-chloropyridin-3-yl)methyl)piperazin-1-yl)-1H-indole], for which the IC50 was 328 nM and the inhibition at 1 µM is 66.8%. On to `O=[N+]([O-])c1ccc(N2CCN(Cc3cccnc3Nc3ccccc3)CC2)cc1` [Ex 26, 3-((4-(4-nitrophenyl)piperazin-1-yl)methyl)-N-phenylpyridin-2-amine], for which the inhibition at 1 µM under setting [1] was -4.6%. As for `COc1ccc(C(C)C)cc1CN1CCN(c2ncccn2)CC1` [Ex 27, 2-(4-(5-isopropyl-2-methoxybenzyl)piperazin-1-yl)pyrimidine], the inhibition at 1 µM under setting [1] was found to be 48.9%. Consider `c1ccc2[nH]c(CN3CCN(c4cccc5[nH]ccc45)CC3)nc2c1` [Ex 28, 2-((4-(1H-indol-4-yl)piperazin-1-yl)methyl)-1H-benzo[d]imidazole], for which, under setting [1], the inhibition at 1 µM worked out at 28.8%.

Turning to `c1ccc(CN2CCN(c3cccc4[nH]ccc34)CC2)cc1` [Ex 30, 4-(4-benzylpiperazin-1-yl)-1H-indole], under setting [1], the inhibition at 1 µM worked out at 83.1%. This molecule showed an IC50 (radioligand [125I]LSD 0.82 nM) of 339 nM.

Consider `Fc1ccccc1CN1CCN(c2cccc3[nH]ccc23)CC1` [Ex 31, 4-(4-(2-fluorobenzyl)piperazin-1-yl)-1H-indole], for which the inhibition at 1 µM was found to be 82.6%. Also, the IC50 (radioligand [125I]LSD 0.82 nM) was 460 nM. As to `c1ccc2cc(CN3CCN(c4cccc5[nH]ccc45)CC3)ccc2c1` [Ex 32, 4-(4-(naphthalen-2-ylmethyl)piperazin-1-yl)-1H-indole], the inhibition at 1 µM came to 78.3%. The molecule also registered an IC50 (radioligand [125I]LSD 0.82 nM) of 760 nM. In the case of `Clc1ccccc1CN1CCN(c2cccc3[nH]ccc23)CC1` [Ex 33, 4-(4-(2-chlorobenzyl)piperazin-1-yl)-1H-indole], the inhibition at 1 µM is 78.2%. Further, the IC50 (radioligand [125I]LSD 0.82 nM) was 223 nM. For `Clc1ccc(CN2CCN(c3cccc4[nH]ccc34)CC2)cc1Cl` [Ex 34, 4-(4-(3,4-dichlorobenzyl)piperazin-1-yl)-1H-indole], the inhibition at 1 µM was 54.7%. The IC50 (radioligand [125I]LSD 0.82 nM) was found to be 1240 nM.

As to `Clc1ccc(CN2CCN(c3cccc4[nH]ccc34)CC2)c(Cl)c1` [Ex 35, 4-(4-(2,4-dichlorobenzyl)piperazin-1-yl)-1H-indole], the inhibition at 1 µM under setting [1] was found to be 51.3%. On the same count and under the same terms, the result for `O=[N+]([O-])c1cccc(CN2CCN(c3cccc4[nH]ccc34)CC2)c1` [Ex 36, 4-(4-(3-nitrobenzyl)piperazin-1-yl)-1H-indole] reads 41.5%. As to `CC(C)Oc1ccccc1N1CCN(Cc2ccc(Cl)nc2)CC1` [b, 1-((6-chloropyridin-3-yl)methyl)-4-(2-isopropoxyphenyl)piperazine], under setting [2], the “affinity for the 5HT7 receptor (in words)” value (“affinity” for short) is recorded as “good affinity”. As for `CCOc1ccccc1N1CCN(Cc2c[nH]c3ccccc23)CC1` [c, 3-((4-(2-ethoxyphenyl)piperazin-1-yl)methyl)-1H-indole], the “affinity” value was “good affinity”. In the case of `CN(C)S(=O)(=O)c1ccc2[nH]cc(CCN)c2c1` [compound a, 3-(2-aminoethyl)-N,N-dimethyl-1H-indole-5-sulfonamide], the “affinity” value is “good affinity”. In the case of `O=c1[nH]c2ccccc2n1C1CCN(CCOc2ccccc2)CC1` [compound i, 1-(1-(2-phenoxyethyl)piperidin-4-yl)-1H-benzo[d]imidazol-2(3H)-one], under setting [2], the “affinity” value is given as “good affinity”. For the molecule `COc1ccccc1N1CCN(CCC(O)c2ccccc2)CC1` (stereo not shown) [d, 3-(4-(2-methoxyphenyl)piperazin-1-yl)-1-phenylpropan-1-ol], the “affinity” value under setting [2] was “good affinity”. In the case of `CC(C)Oc1ccccc1N1CCN(Cc2ccc(-n3ccnc3)cc2)CC1` [e, 1-(4-(1H-imidazol-1-yl)benzyl)-4-(2-isopropoxyphenyl)piperazine], the “affinity” value is “good affinity”.
